# Where a name gives a salt, the structure may show the parent alone. Read-outs that look alike come from different tables or passages of the source.
# How the values were obtained:
# Format in all cases: in vivo
# [1] = tested on: tomato late blight
# [2] = tested on: cucumber downy mildew; assay: Test on curative effect against cucumber downy mildew
# Experimental: Cucumber (cultivar: Suyo) was cultivated in a polyethylene pot having a diameter of 7.5 cm, and when it reached two-leaf stage, the cucumber was sprayed and inoculated with a suspension of spores of cucumber downy mildew and kept in a humidified chamber at 20° C. for 4 hours. Then, after drying the crop plant, a drug solution having the respective test compounds adjusted to the predetermined concentrations, was applied in a sufficient amount (20 ml) by means of a spray gun. After the sprayed solution dried, it was kept in a thermostatic chamber at 20° C. for 7 days, whereupon the lesion area ratio in the first leaf was investigated, and the control value was obtained by the following formula. Here, the test was carried out in double series.
# (§1) The lesion area in non-treated area was obtained in the same manner as in the treated area except that instead of the drug solution, water was applied by means of a spray gun. Control value=(b−a)/b×100 where a is the lesion area ratio in treated area, and b is the lesion area ratio in non-treated area.
# (§2) Further, a theoretical value can be calculated by the Colby formula. If the experimental value is higher than the theoretical value by the Colby formula, the fungicidal composition for agricultural or horticultural use of the present invention has a synergistic effect for controlling the plant disease. In this context, the theoretical values by the Colby formula are also shown in brackets ( ) in Table 2.
# [3] = tested on: cucumber downy mildew; assay: Test on preventive effect against cucumber downy mildew
# Experimental: Cucumber (cultivar: Suyo) was cultivated in a polyethylene pot having a diameter of 7.5 cm, and when the cucumber reached two-leaf stage, a drug solution having the respective test compounds adjusted to the predetermined concentrations, was applied in a sufficient amount (20 ml) by means of a spray gun. After the applied solution dried, the cucumber was sprayed and inoculated with a suspension of spores of cucumber downy mildew and kept in a humidified chamber at 20° C. for 4 hours. Thereafter, the cucumber was kept in a thermostatic chamber at 20° C. for 7 days, whereupon the lesion area ratio in the first leaf was investigated, and the control value was obtained by the following formula. Here, the test was carried out in double series.
# as §1, with “lesion area ratio in non-treated” for “lesion area in non-treated”
# as §2, with “1.” for “2.”
# [4] = propamocarb hydrochloride 1000 ppm alone (Compound No. 1 0 ppm)
# [5] = propamocarb hydrochloride 2000 ppm alone (Compound No. 1 0 ppm)
# [6] = propamocarb hydrochloride 4000 ppm alone (Compound No. 1 0 ppm)
SMILES,"Control value in the test on preventive effect against tomato late blight [1, 4]","Control value in the test on preventive effect against tomato late blight [1, 5]","Control value in the test on preventive effect against tomato late blight [1, 6]","Control value in the test on curative effect against cucumber downy mildew [2, 4]","Control value in the test on curative effect against cucumber downy mildew [2, 5]","Control value in the test on curative effect against cucumber downy mildew [2, 6]","Control value in the test on preventive effect against cucumber downy mildew [3, 4]","Control value in the test on preventive effect against cucumber downy mildew [3, 5]","Control value in the test on preventive effect against cucumber downy mildew [3, 6]",Control value in the test on preventive effect against tomato late blight ([1]; Compound No. 1 0.5 ppm alone (propamocarb hydrochloride 0 ppm)),Control value in the test on curative effect against cucumber downy mildew ([2]; Compound No. 1 125 ppm alone (propamocarb hydrochloride 0 ppm)),Control value in the test on curative effect against cucumber downy mildew ([2]; Compound No. 1 500 ppm alone (propamocarb hydrochloride 0 ppm)),Control value in the test on preventive effect against cucumber downy mildew ([3]; Compound No. 1 0.03 ppm alone (propamocarb hydrochloride 0 ppm)),Control value in the test on preventive effect against cucumber downy mildew ([3]; Compound No. 1 0.13 ppm alone (propamocarb hydrochloride 0 ppm))
CCCOC(=O)NCCCN(C)C [propamocarb hydrochloride],0,0,0,10,20,30,0,10,30,–,–,–,–,–
"Cc1ccc(-c2c(Cl)nc(C#N)n2S(=O)(=O)N(C)C)cc1 [Compound No. 1, 4-Chloro-2-cyano-1-dimethylsulfamoyl-5-(4-methylphenyl)imidazole]",–,–,–,–,–,–,–,–,–,67,0,90,0,90

# Source: patent US7851497B2 (priority 2004, dated 2010)
